Where two headings read alike, the source gives them in different places. One block for each compound: values may come before it.
Columns and labels:
[1] = test system: Cucumber powdery mildew (Sphaerotheca uliginea); experiment: pot in vivo assay of bactericidal activity, cucumber powdery mildew; settings: for pest or weed control at 200 µg/mL: Cucumis sativus, read-out: Efficacy(%) cucumber powery mildew
Description: (§1) This test is used to determine the bactericidal activity of the compounds prepared in Example 1, Preparation Examples 1 and 2.
(§2) The targets used in the test example are rice sheath blight and cucumber powdery mildew.
(§3) Test Method: According to "Standard Practice for determination of pesticide biological activity (SOP)", pyrazole amide compound containing diphenyl ether was dispensed to 5% emulsifiable concentrates (hereinafter referred to as 5% EC), […] method (pot in vivo assay). The screening results on the two test targets of the compounds prepared in Example 1, Preparation Examples 1 and 2 were shown in Table 4.
Cucumber powdery mildew (Sphaerotheca uliginea)
A cucumber seedling with uniform growth in true leaf stage was chosen, and dried in shade for 24h after spray treatment. Fresh cucumber powdery mildew spores on the cucumber leaves were collected and washed, and filtered through a double gauze to prepare a spore suspension with concentration of about 100,000 / ml, then spray inoculation was applied. The test materials inoculated were moved into artificial climate with relative humidity of 60-70% and temperature of 21-23 °C (indoor lighting), after about 10 days, investigating and grading were carried out according to the incidence of the blank control, and the control effect was calculated according to the disease index.
(§4) Investigation method and grading standard adopted "Guidelines for the field efficacy trials of pesticides", and the control effect was calculated with the disease index. The disease index = Σ(number of diseased leaves at each grade×relative grade value) × 100/(total number of leaves×9); [formula] Control effect (%) = (disease index of control−disease index of treated) × 100/disease index of control. [formula]

[2] = test system: Rice sheath blight (Rhizoctonia solani); experiment: pot in vivo assay of bactericidal activity, rice sheath blight; settings: for pest or weed control at 200 µg/mL: Rhizoctonia solani, read-out: Efficacy(%) rice sheath blight
Description: as §1, §2
as §3, with “EC), the” for “EC),”
Rice sheath blight (Rhizoctonia solani)
Two potted rice seedlings with uniform growth in true leaf stage were chosen, and dried by air after spray treatment. The side of bacteria cake with mycelium was closely attached on the leaves, after cultured at 22-26 °C under dark light in a moisture preserving manner for 24h, then cultured with natural light for about 4 days. The diameter of disease spot of each inoculating point was measured by using a caliper after the control material was fully attacked by disease, and the control effect was calculated.
as §4

succinate dehydrogenase = biological target: T1, succinate dehydrogenase (Sus scrofa, UniProt A5GZW8+D0VWV4+Q007T0); experiment: inhibitory activity on succinate dehydrogenase (DCIP reduction at 600 nm); assay type: biochemical, pig
T1 construct: succinate dehydrogenase, which was isolated from pig hearts; from tissue; host or cells: pig heart
T1 sequence (Q007T0 29-280): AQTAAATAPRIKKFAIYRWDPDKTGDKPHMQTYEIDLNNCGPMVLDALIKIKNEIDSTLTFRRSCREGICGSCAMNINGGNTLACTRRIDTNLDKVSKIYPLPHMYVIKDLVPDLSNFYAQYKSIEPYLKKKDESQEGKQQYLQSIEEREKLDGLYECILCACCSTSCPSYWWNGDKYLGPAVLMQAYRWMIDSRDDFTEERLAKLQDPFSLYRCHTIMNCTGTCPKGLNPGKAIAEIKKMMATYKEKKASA
T1 sequence (D0VWV4 30-169): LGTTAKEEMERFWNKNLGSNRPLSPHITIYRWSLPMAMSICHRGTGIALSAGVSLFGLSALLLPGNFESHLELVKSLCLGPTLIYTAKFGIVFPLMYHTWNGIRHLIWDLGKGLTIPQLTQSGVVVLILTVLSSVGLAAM
T1 sequence (A5GZW8 57-159 limits assumed): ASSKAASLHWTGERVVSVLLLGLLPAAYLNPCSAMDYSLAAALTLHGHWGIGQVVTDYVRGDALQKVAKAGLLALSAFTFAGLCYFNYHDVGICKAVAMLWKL
T1 sequence (Q0QF01 43-664 partner): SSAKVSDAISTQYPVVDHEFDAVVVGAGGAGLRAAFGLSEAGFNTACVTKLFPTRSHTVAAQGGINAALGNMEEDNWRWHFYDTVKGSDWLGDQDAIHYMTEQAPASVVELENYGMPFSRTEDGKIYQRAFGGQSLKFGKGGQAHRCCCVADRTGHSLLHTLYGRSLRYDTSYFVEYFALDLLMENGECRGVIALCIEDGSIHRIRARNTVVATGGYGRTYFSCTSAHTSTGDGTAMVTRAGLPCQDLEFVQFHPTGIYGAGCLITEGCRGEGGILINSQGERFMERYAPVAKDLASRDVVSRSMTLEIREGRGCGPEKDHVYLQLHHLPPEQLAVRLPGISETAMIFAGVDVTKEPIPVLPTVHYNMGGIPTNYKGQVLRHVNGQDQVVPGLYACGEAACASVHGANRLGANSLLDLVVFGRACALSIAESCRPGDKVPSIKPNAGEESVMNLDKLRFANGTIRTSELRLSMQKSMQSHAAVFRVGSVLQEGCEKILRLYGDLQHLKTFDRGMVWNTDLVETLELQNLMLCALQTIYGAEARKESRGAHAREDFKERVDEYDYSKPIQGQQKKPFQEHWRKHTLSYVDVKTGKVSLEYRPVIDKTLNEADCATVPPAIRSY
Method: This test was used to determine the inhibitory activity on the succinate dehydrogenase of the compounds prepared in Example 1, Preparation Examples 1 and 2 .
The enzyme used in the test example was succinate dehydrogenase, which was isolated from pig hearts.
Test Method: total volume was 1.8ml, the system comprised 100mM Na2HPO4-NaH2PO4 buffer (pH7.4), 0.3mM EDTA, 20mM sodium succinate, 53µM DCIP (2,6-dichloro indophenol sodium), 2nM succinate dehydrogenase. In water bath with 23 °C of constant temperature and 600rpm magnetic stirring, the reduction of the light absorption of substrate DCIP was monitored at a wavelength of 600nm, the experimental points within the linear range were collected, that is, the experimental points in which the consumption of substrate was controlled not exceeding 5% were collected. The molar extinction coefficient of DCIP was 21mM^-1cm^-1. The reduction amount of DCIP during the reaction time was calculated and linear slope was fitted, and then the initial velocity of the reaction was obtained by deducting the baseline slope.

Structure (SMILES): Cn1cc(C(=O)Nc2ccccc2Oc2ccc(C#N)cc2)c(C(F)F)n1 [III-7]
pest or weed control at 200 µg/mL [1]: 0%
pest or weed control at 200 µg/mL [2]: 45%
IC50 (succinate dehydrogenase): > 100 µM

Structure (SMILES): Cn1cc(C(=O)Nc2ccccc2Oc2ccccc2Cl)c(C(F)(F)F)n1 [III-8]
pest or weed control at 200 µg/mL [1]: 0%
pest or weed control at 200 µg/mL [2]: 81.9%
IC50 (succinate dehydrogenase): 1.98 ± 1.39 µM

Structure (SMILES): Cn1cc(C(=O)Nc2ccccc2Oc2ccc(Cl)cc2)c(C(F)(F)F)n1 [III-9]
pest or weed control at 200 µg/mL [1]: 0%
pest or weed control at 200 µg/mL [2]: 66.3%
IC50 (succinate dehydrogenase; succinate dehydrogenase isolated from pig hearts, pH7.4, 23 °C): 4.9 ± 1.28 µM

Structure (SMILES): Cn1cc(C(=O)Nc2ccccc2Oc2ccc(Cl)cc2)c(C(F)F)n1 [III-10]
pest or weed control at 200 µg/mL [1]: 0%
pest or weed control at 200 µg/mL [2]: 68.3%
IC50 (succinate dehydrogenase): 2.02 ± 1.15 µM

Structure (SMILES): Cn1cc(C(=O)Nc2ccccc2Oc2ccc(C(F)(F)F)cc2)c(C(F)(F)F)n1 [III-11]
pest or weed control at 200 µg/mL [1]: 0%
pest or weed control at 200 µg/mL [2]: 56.3%
IC50 (succinate dehydrogenase): 3.17 ± 1.12 µM

Structure (SMILES): Cn1cc(C(=O)Nc2ccccc2Oc2ccc(C(F)(F)F)cc2)c(C(F)F)n1 [III-12]
pest or weed control at 200 µg/mL [1]: 0%
pest or weed control at 200 µg/mL [2]: 72.3%
IC50 (succinate dehydrogenase): 1.62 ± 1.35 µM

Structure (SMILES): Cc1cccc(Oc2ccccc2NC(=O)c2cn(C)nc2C(F)(F)F)c1C [III-13]
pest or weed control at 200 µg/mL [1]: 0%
pest or weed control at 200 µg/mL [2]: 63.2%
IC50 (succinate dehydrogenase): 9.86 ± 1.27 µM

Structure (SMILES): Cc1cccc(Oc2ccccc2NC(=O)c2cn(C)nc2C(F)F)c1C [III-14]
pest or weed control at 200 µg/mL [1]: 0%
pest or weed control at 200 µg/mL [2]: 65.9%
IC50 (succinate dehydrogenase): 3.22 ± 1.33 µM

Structure (SMILES): Cc1cc(C)cc(Oc2ccccc2NC(=O)c2cn(C)nc2C(F)(F)F)c1 [III-15]
pest or weed control at 200 µg/mL [1]: 0%
pest or weed control at 200 µg/mL [2]: 55.2%
IC50 (succinate dehydrogenase): 5.12 ± 1.04 µM

Structure (SMILES): Cc1cc(C)cc(Oc2ccccc2NC(=O)c2cn(C)nc2C(F)F)c1 [III-16]
pest or weed control at 200 µg/mL [1]: 0%
pest or weed control at 200 µg/mL [2]: 50%
IC50 (succinate dehydrogenase): 2.03 ± 1.22 µM

inhibition at 0.03 µM (succinate dehydrogenase; concentration 0.03 µM, read-out: inhibition ratio(%)): 0%
inhibition at 0.05 µM (succinate dehydrogenase; concentration 0.05 µM, read-out: inhibition ratio(%)): 9.21%
inhibition at 0.1 µM (succinate dehydrogenase; concentration 0.1 µM, read-out: inhibition ratio(%)): 29.7%
inhibition at 0.2 µM (succinate dehydrogenase; concentration 0.2 µM, read-out: inhibition ratio(%)): 47.6%
inhibition at 0.3 µM (succinate dehydrogenase; concentration 0.3 µM, read-out: inhibition ratio(%)): 59.5%
inhibition at 0.5 µM (succinate dehydrogenase; concentration 0.5 µM, read-out: inhibition ratio(%)): 71.7%
inhibition at 1 µM (succinate dehydrogenase; concentration 1 µM, read-out: inhibition ratio(%)): 77.9%
inhibition at 10 µM (succinate dehydrogenase; concentration 10 µM, read-out: inhibition ratio(%)): 94.5%
inhibition at 50 µM (succinate dehydrogenase; concentration 50 µM, read-out: inhibition ratio(%)): 96.7%
IC50 (succinate dehydrogenase; succinate dehydrogenase isolated from pig hearts, pH7.4, 23 °C, read-out: IC50): 0.2 ± 0.0121 µM
Structure (SMILES): Cc1nc(C(F)(F)F)c(C(=O)Nc2c(Br)cc(OC(F)(F)F)cc2Br)s1 [Thifluzamide, reference compound]
efficacy on cucumber powery mildew(%) ([1]; concentration 12.5 mg/L): 0%
efficacy on cucumber powery mildew(%) ([1]; concentration 25 mg/L): 22.22%
efficacy on cucumber powery mildew(%) ([1]; concentration 50 mg/L): 62.96%
efficacy on cucumber powery mildew(%) ([1]; concentration 100 mg/L): 100%
efficacy on rice sheath bilght(%) ([2]; concentration 1.5 mg/L): 0%
efficacy on rice sheath bilght(%) ([2]; concentration 3.25 mg/L): 13.38%
efficacy on rice sheath bilght(%) ([2]; concentration 6.25 mg/L): 54.30%
efficacy on rice sheath bilght(%) ([2]; concentration 12.5 mg/L): 61.36%
efficacy on rice sheath bilght(%) ([2]; concentration 25 mg/L): 81.85%
efficacy on rice sheath bilght(%) ([2]; concentration 50 mg/L): 100%
efficacy on rice sheath bilght(%) ([2]; concentration 100 mg/L): 100%

— EP3061750A1, “PYRAZOLE AMIDE COMPOUND CONTAINING DIPHENYL ETHER, AND APPLICATION THEREOF, AND PESTICIDE COMPOSITION” (Central China Normal University, priority 2013, dated 2015)
